Data on one molecule can be found in US5622983A, “N-substituted cycloalkyl and polycycloalkyl α-substituted Trp-Phe- and phenethylamine derivatives” (Warner-Lambert Company, priority 1995, dated 1997).

Assay [1] in a line: Aspirin-induced gastric damage. Particulars: 10 mg/kg PO. Format: in vivo, rat. The protocol:
Aspirin-induced gastric damage was assessed in groups of 10 rats each.
All animals were fasted for 24 hours before and throughout the experiment. Drug or vehicle was given 10 minutes before an oral dose of 1 mL of a 45-mg/mL suspension of aspirin in 0.5% carboxymethylcellulose (CMC).
The animals were sacrificed five hours after aspirin administration and the stomachs removed and opened for examination.

A short description of assay [2]: Flexor response in stimulated spinalized decerebrated rat preparation.
Assay [3] deals with LoVo (xenograft). Briefly: LoVo xenograft growth in nude mice. Format: in vivo. The procedure: One×10^6 LoVo cells in 0.1 mL serum-free RPMI were injected subcutaneously into the backs of 27 male nude mice. Xenografts were grown for 10 days prior to treatment, then randomly allocated to receive twice daily gavage with either 0.1 mL saline alone or containing 10 mg/kg/day of compound 20 for 20 days. Bidirectional tumor diameter was measured using vernier calipers and converted to volumes […]. The animals were sacrificed on Day 30. The protocol was approved by the UNSW Ethics committee.

A short description of assay [4]: Withdrawal from long-term drug or alcohol treatment, mouse light/dark box test. Format: in vivo. The protocol: The effect of the compounds of the instant invention is illustrated, for example, in the mouse "light/dark box" test in FIGS. 5-12.
In FIG. 5, five animals were given nicotine, 0.1 mg/kg i.p.b.d. for 14 days. After a 24-hour withdrawal period, compound (20) was given at 1.0 mg/kg i.p.b.d.
FIG. 6 illustrates the effect of long-term treatment and withdrawal from nicotine using compound (20A). Five mice were given nicotine at 0.1 mg/kg i.p.b.d. for 14 days. After a withdrawal period of 24 hours, compound (20A) was given at 10 mg/kg i.p.b.d.
FIG. 7 illustrates the effect of long-term treatment and withdrawal from diazepam with intervention with compound (20). Five mice were given diazepam, at 10 mg/kg i.p.b.d. for seven days. Withdrawal was for a 24-hour period; compound 20 was given at 1.0 mg/kg i.p.b.d.
FIG. 8 illustrates the effect of compound (20A) on the long-term treatment and withdrawal from diazepam. Five mice were given diazepam at 10 mg/kg i.p.b.d. for seven days. After a withdrawal period of 24 hours, compound (20A) was given at 10 mg/kg i.p.b.d.
FIG. 9 illustrates the effect compound (20A) on the long-term treatment and withdrawal from alcohol. Five mice were given alcohol in drinking water 8% w/v for 14 days. After a withdrawal period of 24 hours, compound (20) was given at 1.0 mg/kg i.p.b.d.
Five mice were given alcohol in drinking water, 8% w/v for 14 days. After a withdrawal period of 24 hours, compound (20A) was given at 10 mg/kg i.p.b.d.
FIG. 11 illustrates the effectiveness in the long-term treatment and withdrawal from cocaine. Five mice were given cocaine as 1.0 mg/kg i.p.b.d. for 14 days.
Five mice were given cocaine at 1.0 mg/kg i.p.b.d. for 14 days after a withdrawal period of 24 hours, compound (20a) was given at 1.0 mg/kg i.p.b.d.

Molecules are shown by their SMILES.

Regarding `CC(Cc1c[nH]c2ccccc12)(NC(=O)OC1C2CC3CC(C2)CC1C3)C(=O)NCC(NC(=O)CCC(=O)O)c1ccccc1` (stereo not drawn) [Example 20, [R-(R*,R*)-4-[[2-[[3-(1H-indol-3-yl)-2-methyl-1-oxo-2-[[(tricyclo[3.3.1.1^3,7]dec-2-yloxy)carbonyl]amino]propyl]amino]-1-phenylethyl]amino]-4-oxobutanoic acid], in assay [1], the “reduction in ulcer formation” value stood at 48%. Also, the ulcer score in assay [1] (±SD, saline control 12.1±6.85) is reported as 6.3±4.14. For the same molecule, the “flexor response (FIG. 16)” value in assay [2] (compound alone, similar to morphine) is “depresses the flexor response”. Further, in assay [2] (given with morphine), the “duration of the potentiated effect” value worked out at 3 h and the “effect on flexor response when given with morphine (FIG. 16)” value is “greatly potentiates the effect”. Also, the “reduction of tumor volume at Day 30 compared to control” value in assay [3] (10 mg/kg/day by gavage for 20 days) is reported as 53%. Besides, the “tumor growth overall, mean tumor volume (FIG. 17)” value in assay [3] (10 mg/kg/day orally, 20 days, p <0.05, ANOVA) was “significantly inhibited tumor growth overall”. For the same molecule, the “day from which tumor size diverged significantly between control and treated animals” value in assay [3] (10 mg/kg/day, p <0.05, ANOVA) came to 21 days. The “time spent in the light section after withdrawal from alcohol (FIG. 9)” value in assay [4] (alcohol 8% w/v in drinking water 14 days, 24-hour withdrawal, compound 1.0 mg/kg i.p.b.d.) is recorded as “demonstrates the effectiveness of the compound”. In assay [4] (cocaine 1.0 mg/kg i.p.b.d. 14 days), the “time in the light section after withdrawal from cocaine (FIG. 11)” value is listed as “increased time in the light section”. In addition, in assay [4] (diazepam 10 mg/kg i.p.b.d. seven days, 24-hour withdrawal, compound 1.0 mg/kg i.p.b.d.), the “time spent in the light section after withdrawal from diazepam (FIG. 7)” value is reported as “increased time spent in the light section”. For the same molecule, the “time spent in the light area after withdrawal from nicotine (FIG. 5)” value in assay [4] (nicotine 0.1 mg/kg i.p.b.d. 14 days, 24-hour withdrawal, compound 1.0 mg/kg i.p.b.d.) is “increased time spent in the light area”.
